Results on 85 compounds are retold here after a melting point compilation (Tetko et al.; mined from patent text by program, amines drawn as free bases though some values may be those of a salt).

For the compound `CC(=O)Oc1cc2c(cc1F)C1(OC(=O)c3c1ccc(N)c3N)c1cc(F)c(OC(C)=O)cc1O2`, the melting point was determined as 135 °C.
Next, `CCCCCCCCCCCCCCCCCCOc1cc(C(=O)OC)cc(C(=O)N(CC(=O)OCC)CC(=O)OCC)c1`: 57 to 60 °C.
Turning to `COc1cccc(Cc2snnc2-c2ccco2)c1`, the melting point is 80.6 to 82 °C.
For the compound `N#Cc1cc(Sc2ccc(Cl)c(Cl)c2)ccc1[N+](=O)[O-]`, the melting point fell in the range of 136 to 138 °C.
Next, `CCCCCCCOC(=O)Oc1ccc(-c2ccc(C#N)cc2)cc1`: 50.2 to 50.5 °C.
The compound `O=C1N(Cc2ccncc2)Cc2cccnc2N1c1cccc([N+](=O)[O-])c1` had a melting point of 169 to 170 °C.
Compound `COc1ccc2[nH]cc(S(=O)(=O)c3ccccc3)c2c1` gave a melting point of 151 to 155 °C.
Compound `Cc1ccccc1NC(=O)c1cc([N+](=O)[O-])ccc1NC(=O)CF` gave a melting point of 238 to 239 °C.
Next, `CCOP(=O)(CNC(Cc1ccc(Cl)cc1)c1cc(C(C)(C)C)c(O)c(C(C)(C)C)c1)OCC` (stereo not given): 120 to 121 °C; `CC(=O)N1CCOc2c(C(=O)O)cc(Cl)cc21`: 76 to 77 °C.
In turn, `NS(=O)(=O)c1ccc(-c2cnn(Cc3c(F)cc(F)cc3F)c(=O)c2-c2ccc(F)cc2)cc1` registered a melting point of 201 to 203 °C.
The result for `Cc1cnc(CCCCNc2ncc(Cc3ccc(CO)nc3)c(=O)[nH]2)c(Br)c1` reads 150 to 152 °C; that for `Cc1ccc([C@@H]2CO[C@@H](c3ccc(C)cc3)CO2)cc1`, 200 °C; that for `CCN(CC)CCC1(C(N)=O)Cc2ccccc2N(CC)c2ccccc21` (stereo not given), 95 to 97 °C.
Next, `O=C1CCC2(c3ccc(-c4ccc(OC(F)(F)F)cc4)cc3)OCC(c3ccccc3)N12` (stereo not given): 104 °C.
The result for `CCc1ccc(C2CCC(c3ccc(Oc4ccc([N+](=O)[O-])cc4)cc3)(c3ccc(Oc4ccc([N+](=O)[O-])cc4)cc3)CC2)cc1` reads 204 to 205 °C.
As to `CC1(C)CC(=C(c2ccc(O)cc2)c2ccc(OCCOCCO)cc2)CC(C)(C)C1`, the melting point fell in the range of 122 to 124 °C.
`COc1ccc(C(=O)Nc2ccc(C3(CNC(=O)C(C)(C)C)CCCC3)cc2)cc1OC` showed a melting point of 165 to 167 °C.
The result for `CN(C)S(=O)(=O)n1cc(I)cn1` reads 32 °C; that for `CN1C(=O)C2(COc3cc4c(cc32)OCCO4)c2c(C(=O)NC3CC3)cccc21` (stereo not given), 127 to 128 °C.
`CSc1nc(NCc2ccc(-c3ccccc3)cc2)n2ncc(C(C)C)c2n1` displayed a melting point of 134 to 135 °C.
In the case of `CC(C)c1cnc(NC(=O)Nc2cccc(I)c2)s1`, the melting point lay within 90 to 92 °C.
The result for `CN(C)C1CCN(c2nc(N3CCOCC3)c3ncnc(N(CCCN)Cc4ccccc4)c3n2)CC1` reads 102 to 105 °C; that for `C[C@@H]1CN(C(=O)[C@@](C)(O)C(F)(F)F)[C@@H](C)CN1C(=O)c1ccc(F)cc1`, 177 to 178 °C; that for `N#CCCNC(=O)c1cccc(-c2ccc3ncn(Cc4ccc(Cl)cc4Cl)c3n2)c1`, 218 to 219 °C.
The result for `O=C1Cc2ccccc2N1CCCl` reads 74 °C; that for `CCc1cn(-c2ncccn2)c2c1C(=O)CC(C)(C)C2`, 111 to 114 °C; that for `C(#Cc1ccncc1)c1ccccc1`, 51 to 53 °C.
The compound `CC(=O)Oc1cc(N2C(=O)CC(SC3CCCCC3)C2=O)ccc1C(=O)O` (stereo not given) displayed a melting point of 155 to 158 °C.
As to `COc1ncc(CN2C(=O)C3(COc4cc5c(cc43)OCO5)c3ccccc32)s1` (stereo not given), the melting point lay in the range of 164 to 166 °C.
For `CC(=O)Oc1c(C)c(C)c2c(c1C)CCC(O)O2` (stereo not given), the melting point lay within 115 to 120 °C.
Compound `COc1ccc(-c2ccc(-c3ccc(OC)cc3)c(-c3ccc(O)cc3)n2)cc1` registered a melting point of 204 to 205 °C.
Next, `CCOC(=O)c1cnc(SC)nc1NC(C)C`: 159 to 160 °C.
Regarding `CCN(CC)c1nc2ccnn2c2ncccc12`, the melting point worked out at 102 °C.
On to `CCN1CCCC1CNC(=O)c1c(O)ccc(Br)c1OC` (stereo not given), for which the melting point fell in the range of 62 to 63 °C.
The compound `CC(C)C(=O)c1cccc(S(N)(=O)=O)c1` had a melting point of 170 to 171 °C.
For the compound `CC(C)(C)OC(=O)N1CCC(c2ccc3oc(-c4ccc(S(C)(=O)=O)cc4F)nc3c2)CC1`, the melting point lay in the range of 168 to 171 °C.
For the compound `O=C1OCc2c1cc1ccc3c(c1c2-c1ccc(Cl)cc1)OCO3`, the melting point was in the range of 225 to 227 °C.
The result for `O=C1CCC(c2ccc(Cl)cc2)c2ccccc2N1` (stereo not given) reads 209 to 212 °C; that for `CON=C(C)CCN1C(=O)c2ccccc2C1=O`, 55 to 64 °C; that for `N#Cc1nn(-c2c(Cl)cc(C(F)(F)F)cc2Cl)cc1C=C(Cl)Cl`, 99 to 101 °C.
`Cn1cc(C(=O)NCc2ccc(Cl)cc2)c(=O)c2cc(CN3CCOCC3)cc(C#CCCO)c21` gave a melting point of 168 to 170 °C.
In turn, `COc1cccc(C(=O)N(C)Cc2cccc3c2C(=O)N(C2CCC(=O)NC2=O)C3=O)c1` (stereo not given) displayed a melting point of 216 to 218 °C.
Compound `COc1cccc(C(=O)O)c1OCCN1CCC(c2cn(Cc3ccoc3)c3cnccc23)CC1` yielded a melting point of 303 to 304 °C.
`FC(F)(F)c1ccc(NC(=S)Nc2ncccc2OCc2ccccc2)cc1` displayed a melting point of 165 to 167 °C.
`C#CCOc1ccc(CCNC(=O)C(=NOC)c2ccc(Cl)c(Cl)c2)cc1OC` displayed a melting point of 107 to 108 °C.
`CC(=O)N(CCC(CCN1CCCCC1)(C(N)=O)c1ccccc1Cl)C(C)C` (stereo not given): the melting point fell in the range of 141 to 147 °C.
In the case of `CCc1nn(CCO)c(CC)c1C(=O)c1cc(Cl)cc(Cl)c1`, the melting point is 134 °C.
Consider `CC(=O)OC1CC2(C)C(CCC2(Sc2ccccc2)Sc2ccccc2)C2CCC3=CC(=O)C=CC3(C)C12F` (stereo not given), for which the melting point fell in the range of 180 to 184 °C.
As for `c1cc2c(ccc3[nH]c4c(c32)CNCC4)s1`, the melting point was 190 °C.
The result for `Cc1ccc(S(=O)(=O)O[C@H](C)COc2c(N)ccc(F)c2F)cc1` reads 37 to 38 °C.
With `COC(=O)CCC(=O)c1cc2c(=O)c3ccccc3ccc2s1`, the melting point fell in the range of 144 to 145 °C.
The result for `CCc1nc2c(N)nc3ccccc3c2n1OC(C)C` reads 242 to 243 °C; that for `CCCCN1CCCC1Cc1cccc(NC(N)=O)c1` (stereo not given), 80 to 83 °C; that for `CCOC(=O)C(C)(C)c1cn2nc(NCCCN3CCC(NC(c4ccccc4)c4ccccc4)CC3)ccc2n1`, 115 to 117 °C.
Compound `N#Cc1cnn(-c2c(Cl)cc(C(F)(F)F)cc2Cl)c1C=CC(=O)NS(=O)(=O)Cc1ccccc1` showed a melting point of 178 to 183 °C.
The compound `CC[C@@H](C)[C@H]1c2ccccc2-c2ccccc2N1S(=O)(=O)c1ccc(O)cc1` (relative stereo) showed a melting point of 115 to 118 °C.
Compound `NC(=O)c1nc(-c2cccnc2O)nc2c1[nH]c(=O)n2-c1ccccc1C(F)(F)F` came in with a melting point of 331 to 335 °C.
Compound `Cc1cc(Cl)cc(C(=O)Nc2cccc(F)c2)n1` yielded a melting point of 123 °C.
The compound `CCOC(=O)c1c2n(c3c(F)c(Cl)ccc3c1=O)CCS2` registered a melting point of 216 °C.
As to `N#CNC(=O)C12CC3CC(CC(C3)C1)C2`, the melting point lay within 164 to 166 °C.
The compound `O=C1OC2(C=Cc3ccccc3O2)c2ccccc21` (stereo not given) displayed a melting point of 113 to 114 °C.
The compound `COc1ccc(CNc2cc3c(Nc4ccc(Cl)c(Cl)c4)ncnc3cn2)cc1` registered a melting point of 209 to 211 °C.
The compound `Cc1cc(C#N)nc(Oc2cc(C(F)(F)F)nn2C)c1` displayed a melting point of 88 °C.
In turn, `O=C(O)c1ccccc1CN1C(=O)C2(COc3cc4c(cc32)OCO4)c2ccccc21` (stereo not given) registered a melting point greater than 250 °C.
For the compound `OC1(C#Cc2ccccc2Cc2ccccc2)CN2CCC1CC2` (stereo not given), the melting point lay in the range of 156 to 157 °C.
The result for `Cc1ccc(S(=O)(=O)OCC2COc3ccc4[nH]ccc4c3O2)cc1` (stereo not given) reads 145 °C; that for `COC(=O)C=Cc1ccc(OCc2nc(-c3ccccc3)c(-c3ccccc3)o2)cc1`, 159 to 161 °C.
Next, `Cc1noc(NS(=O)(=O)c2sccc2-c2ccccc2)c1Br`: 105 to 107 °C.
For the compound `CCOC(=O)c1cc2c(OCC3CO3)cccc2[nH]1` (stereo not given), the melting point was in the range of 142 to 144 °C.
As to `NC(=O)c1cc(-c2cccc3cc(Cc4cc(F)cc(Cl)c4)sc23)ccc1F`, the melting point lay within 169 to 170 °C.
`Cc1nc2c(N)nc3ccccc3c2n1Cc1cc(-c2ccc(F)cc2)no1` yielded a melting point of 294 to 296 °C.
The compound `Cc1cccc2c1ncn2Cc1oc2ccc(Br)cc2c(=O)c1-c1ccccc1` displayed a melting point of 176 to 179 °C.
On to `CC(C)(C)NC(=O)[C@@H]1C[C@H](O)CN1C(=O)[C@@H](O)[C@H](Cc1ccccc1)NC(=O)[C@H](CC(N)=O)NC(=O)OCc1ccccc1`, for which the melting point lay in the range of 113 to 115 °C.
With `CNCCNC(=O)c1nc(Cl)c(N)nc1N`, the melting point lay in the range of 142 to 143 °C.
For the compound `CC1(C)CON(Cc2ccc(NC(=O)Cc3ccccc3C(=O)O)cc2)C1=O`, the melting point lay within 164 to 166 °C.
`CC(=O)NC(C)c1ccc(CN2CCN(c3ccc(F)cc3F)CC2)cc1` (stereo not given) came in with a melting point of 109 to 111 °C.
Next, `O=C(Nc1ccc(N2CCCC2)cc1)N(C[C@H]1CC[C@H](CN(C(=O)Nc2ccc(N3CCCC3)cc2)C2CCCCC2)CC1)C1CCCCC1`: 149 to 152 °C; `COC(=O)CCCc1cc2cc(Cl)ccc2n1S(=O)(=O)c1ccc(F)c([N+](=O)[O-])c1`: 93 °C.
The result for `OCCN1C2C=C(c3ccc4ccccc4c3)CC1CC2` (stereo not given) reads 113 to 114 °C; that for `O=C(Nc1ccc2ccc(Oc3ccccc3)nc2n1)c1ccoc1`, 102 °C; that for `CC(=O)NNc1nc(C(F)(F)F)nc(-c2ccc(F)cc2)c1-c1ccccc1`, 149 to 153 °C.
Turning to `CC(C)(C#N)Cc1ccc(-c2ccc(CC(C)(C)C#N)c(Cl)c2)cc1Cl`, the melting point fell in the range of 148 to 156 °C.
`NC(=O)C1CN(Cc2nc(-c3ccccc3)c(-c3ccccc3)o2)CCN1CC(=O)Nc1c(Cl)cc(N)cc1Cl` (stereo not given) yielded a melting point of 137 to 139 °C.
As to `O=C(CBr)Nc1cc(F)c(F)cc1C(=O)O`, the melting point was 177 to 180 °C.
